Laboratory results taken from patent US9023853B2, “Janus kinase 2 (JAK2) inhibitor for the treatment of lupus” (Cephalon, Inc., priority 2010, dated 2015).
“Also recorded” adds a separate entry of the source.

Tests used:
Format in all cases: in vivo, mouse
[1] = tested on: MRL/lpr mice; experiment: Renal histopathology kidney IC-GN scoring in MRL/lpr mice; details: for Glomerular Cellularity / Glomerular Necrosis / Glomerulosclerosis / Interstitial Fibrosis / Interstitial Inflitration / Tubular Atrophy / Vasculitis: MRL/lpr kidney score (grade 0-5), mean
Method: Kidney stains used for histological analyses included hematoxylin and eosin (H&E), Periodic Acid Schiff (PAS) and Trichrome stains (Wistar Institute, Philadelphia, Pa.). All 3 stained sections were used by the pathologist for scoring purposes. All histological scoring was performed blinded and by an independent board certified veterinary medical pathologist (Julie […]; University of Pennsylvania). Multiple stains were used to determine score values. Images in FIGS. 8, 19 and 20 show worst affected area of section selected blindly by the pathologist. Kidney IC-GN Scoring Method (Smith, Dong et al. 2007): 1. Glomerular cellularity-Score 1-5: Null, low, moderate, high, severe […] Glomerular necrosis-Score 1-5: Null, low, moderate, high, severe […] Glomerulosclerosis-Score 1-5: Null, low, moderate, high, severe […] Null, low, moderate, high, severe 5. […] Null, low, moderate, high, severe 6. […] Null, low, moderate, high, severe 7. […] Null, low, moderate, high, severe Specific Pathologist Definitions: • Necrosis was defined by the presence of nuclear debris/pyknosis within the glomerular tuft indicative of “necrosis.” In many samples, this was a very mild, rare finding within only a very few segments of the glomerular tuft. Also considered effacement of the glomerular tuft by PAS positive, Trichrome negative material necrosis. • Glomerular sclerosis was defined by increased fibroplasia or fibrosis within the glomerular tuft or capsule. […] Most of the vascular changes were mild and could be considered “arteriosclerosis” characterized by proliferation of the smooth muscle cells, and hyalinization of the extracellular matrix. This change may reflect hypertension secondary to glomerular pathology. In very few animals was there overt “vasculitis.” Most inflammatory changes were within the walls of the blood vessels, with little to no damage to the endothelium, and no overt hemorrhage/fibrin leakage. Many also have perivascular rims of fibroblasts. […] Mice were tracked on an individual basis.

[2] = tested on: IFNα; experiment: Serum IFNα at EOS in NZM mice; details: EOS
Method: (§1) Age mated, female, NZM or NZW/LacJ, mice were matured for the study of lupus nephritis for a total of 7 months or 210 days at which time urine was collected for proteinuria detection. Mice with 0.5-1.0 mg/ml of urine protein as determined by an optical density-based total protein precipitation assay and cross-checked for 30-300 mg/dl of protein as determined by a stick assay were considered proteinuria positive and selected for study entry. Groups were normalized to contain a Gaussian distribution of proteinuria positive animals (i.e., ⅓ low proteinuria, ⅓ medium, ⅓ high) then randomized between groups before ear marking and taking baseline measures including urine and serum collections. A total of five mice from the total population were randomly selected for baseline kidney histology evaluation. Treatments and tests for each group are as described in FIG. 12. Briefly, with a minimum of 10 mice per group, COMPOUND A was administered at 100 mg/kg or 55 mg/kg, both twice a day and orally. […] Vehicle included 3% DMSO, 10% Solutol and 87% PBS. […] End-stage lupus nephritis was evaluated by histopathology and scored by a board certified pathologist for the assessment of total renal damage in diseased animals using the scoring method described by Smith et al (Smith, Dong et al. 2007). […] Day-98 or “end of treatment/study” represents 310 days of age for the NZM animals.

[3] = tested on: NZM mice; experiment: Renal histopathology kidney IC-GN scoring in NZM mice; details: for D: Glomerular Sclerosis / E: Interstitial Infiltration / G: Interstitial Fibrosis / B: Glomerular Cellularity / C: Glomerular Necrosis / F: Tubular Atrophy / H: Vasculitis: NZM individual mouse; for Glomerular Cellularity / Glomerular Necrosis / Glomerulosclerosis / Interstitial Fibrosis / Interstitial Infiltration / Tubular Atrophy / Vasculitis: NZM kidney score (grade 0-5), mean; for glomerular cellularity decrease compared to vehicle: p<0.001
Method: (§2) For histological analyses, the left kidney and lung (NZM model only) from each animal was removed and fixed in 10% buffered neutral 10% formalin (EMD) for 48 hours on an orbital rocker at 25° C., then washed overnight with running dH2O and stored in 70% ethanol at 4° C. until ready to be processed. Kidney stains used for histological analyses included hematoxylin and eosin (H&E), Periodic Acid Schiff (PAS) and Trichrome stains (Wistar Institute, Philadelphia, Pa.). All 3 stained sections were used by the pathologist for scoring purposes. All histological scoring was performed blinded and by an independent board certified veterinary medical pathologist (Julie Engiles, VMD, DACVP; University of Pennsylvania). Multiple stains were used to determine score values. Images in FIGS. 8, 19 and 20 show worst affected area of section selected blindly by the pathologist.
Kidney IC-GN Scoring Method (Smith, Dong et al. 2007):
1. […]
2. […]
3. […]
4. […]
5. […]
6. […]
7. […]
Also considered effacement of the glomerular tuft by PAS positive, Trichrome negative material necrosis. • Glomerular sclerosis was defined by increased fibroplasia or fibrosis within the glomerular tuft or capsule. […] Pharmacodynamic (PD) Analysis
as §1

[4] = tested on: NZM mice; experiment: Lung histopathology in NZM mice; details: COMPOUND A 55 mg/kg and 100 mg/kg, vs dexamethasone and vehicle
Method: as §2, with “Multiple stains were used to determine score values. Images in FIGS. 8, 19 and 20 show worst affected area of section selected blindly by the pathologist.” left out
Age mated, female, NZM or NZW/LacJ, mice were matured for the study of lupus nephritis for a total of 7 months or 210 days at which time urine was collected for proteinuria detection. Mice with 0.5-1.0 mg/ml of urine protein as determined by an optical density-based total protein precipitation assay and cross-checked for 30-300 mg/dl of protein as determined by a stick assay were considered proteinuria positive and selected for study entry. […] End-stage lupus nephritis was evaluated by histopathology and scored by a board certified pathologist for the assessment of total renal damage in diseased animals using the scoring method described by Smith et al (Smith, Dong et al. 2007). […]

[5] = MRL/lpr mice, 100 mg/kg, p<0.01
[6] = NZM mice, sentence names 55 mg/kg and 100 mg/kg doses, p<0.05

Structure (SMILES): CN1CCN(c2cccc(Nc3nc4c(-c5ccc(S(C)(=O)=O)cc5)cccn4n3)c2)CC1 [COMPOUND A, [8-(4-methanesulfonyl-phenyl)-[1,2,4]triazolo[1,5-a]pyridin-2-yl]-[3-(4-methyl-piperazin-1-yl)-phenyl]-amine]
- Glomerular Cellularity ([1]; COMPOUND A 30 mg/kg): 2.60
- Glomerular Necrosis ([1]; COMPOUND A 30 mg/kg): 1.80
- Glomerulosclerosis ([1]; COMPOUND A 30 mg/kg): 1.60
- Interstitial Fibrosis ([1]; COMPOUND A 30 mg/kg): 1.60
- Interstitial Inflitration ([1]; COMPOUND A 30 mg/kg): 2.20
- Tubular Atrophy ([1]; COMPOUND A 30 mg/kg): 1.20
- Vasculitis ([1]; COMPOUND A 30 mg/kg): 1.80
- Glomerular Cellularity ([1]; COMPOUND A 55 mg/kg): 3.20
- Glomerular Necrosis ([1]; COMPOUND A 55 mg/kg): 1.80
- Glomerulosclerosis ([1]; COMPOUND A 55 mg/kg): 2.00
- Interstitial Fibrosis ([1]; COMPOUND A 55 mg/kg): 1.20
- Interstitial Inflitration ([1]; COMPOUND A 55 mg/kg): 2.00
- Tubular Atrophy ([1]; COMPOUND A 55 mg/kg): 2.20
- Vasculitis ([1]; COMPOUND A 55 mg/kg): 2.00
- Glomerular Cellularity ([1]; COMPOUND A 100 mg/kg): 2.40
- Glomerular Necrosis ([1]; COMPOUND A 100 mg/kg): 1.8
- Glomerulosclerosis ([1]; COMPOUND A 100 mg/kg): 2.20
- Interstitial Fibrosis ([1]; COMPOUND A 100 mg/kg): 1.40
- Interstitial Inflitration ([1]; COMPOUND A 100 mg/kg): 1.80
- Tubular Atrophy ([1]; COMPOUND A 100 mg/kg): 1.40
- Vasculitis ([1]; COMPOUND A 100 mg/kg): 1.40
- interstitial infiltration decrease vs vehicle ([1]; MRL/lpr mice, 55 mg/kg, p<0.05): 33.3%
- glomerular cellularity decrease vs vehicle [1, 5]: 33.3%
- interstitial infiltration decrease vs vehicle [1, 5]: 40%
- vasculitis decrease vs vehicle [1, 5]: 46.1%
- enlarged glomeruli and leukocytic infiltrations in renal sections ([1]; MRL/lpr mice, COMPOUND A treated animals at EOS, FIG. 8): absent
- cellular infiltrations/glomerulonephritis and glomerular size in H&E stained renal sections ([1]; MRL/lpr mice, compared to dexamethasone and vehicle groups, FIG. 8): decreases in both cellular infiltrations/glomerulonephritis and glomerular size
- serum IFNα decrease compared to vehicle ([2]; COMPOUND A 55 mg/kg): 70.2%
- serum IFNα decrease compared to vehicle ([2]; COMPOUND A 100 mg/kg): 73.2%
- D: Glomerular Sclerosis ([3]; CMPD A 55 mpk bid): − (‘−’ no disease (1))
- E: Interstitial Infiltration ([3]; CMPD A 55 mpk bid): − (‘−’ no disease (1))
- G: Interstitial Fibrosis ([3]; CMPD A 55 mpk bid): − (‘−’ no disease (1))
- B: Glomerular Cellularity ([3]; CMPD A 55 mpk bid, 55 mg/kg): + (‘+’ mild (2)); also recorded: − (‘−’ no disease (1))
- C: Glomerular Necrosis ([3]; CMPD A 55 mpk bid, 55 mg/kg): − (‘−’ no disease (1)); also recorded: + (‘+’ mild (2))
- F: Tubular Atrophy ([3]; CMPD A 55 mpk bid, 55 mg/kg): + (‘+’ mild (2)); also recorded: − (‘−’ no disease (1))
- H: Vasculitis ([3]; CMPD A 55 mpk bid, 55 mg/kg): − (‘−’ no disease (1)); also recorded: + (‘+’ mild (2))
- B: Glomerular Cellularity ([3]; CMPD A 100 mpk bid, 100 mg/kg): − (‘−’ no disease (1)); also recorded: + (‘+’ mild (2))
- C: Glomerular Necrosis ([3]; CMPD A 100 mpk bid, 100 mg/kg): − (‘−’ no disease (1)); also recorded: + (‘+’ mild (2)); also recorded: ++ (‘++’ moderate (3))
- D: Glomerular Sclerosis ([3]; CMPD A 100 mpk bid, 100 mg/kg): − (‘−’ no disease (1)); also recorded: ++ (‘++’ moderate (3))
- E: Interstitial Infiltration ([3]; CMPD A 100 mpk bid, 100 mg/kg): − (‘−’ no disease (1)); also recorded: + (‘+’ mild (2))
- F: Tubular Atrophy ([3]; CMPD A 100 mpk bid, 100 mg/kg): − (‘−’ no disease (1)); also recorded: + (‘+’ mild (2))
- G: Interstitial Fibrosis ([3]; CMPD A 100 mpk bid, 100 mg/kg): − (‘−’ no disease (1)); also recorded: + (‘+’ mild (2))
- H: Vasculitis ([3]; CMPD A 100 mpk bid, 100 mg/kg): − (‘−’ no disease (1)); also recorded: + (‘+’ mild (2))
- Glomerular Cellularity ([3]; COMPOUND A 55 mg/kg): 1.33
- Glomerular Necrosis ([3]; COMPOUND A 55 mg/kg): 1.22
- Glomerulosclerosis ([3]; COMPOUND A 55 mg/kg): 1.00
- Interstitial Fibrosis ([3]; COMPOUND A 55 mg/kg): 1.0
- Interstitial Infiltration ([3]; COMPOUND A 55 mg/kg): 1.11
- Tubular Atrophy ([3]; COMPOUND A 55 mg/kg): 1.22
- Vasculitis ([3]; COMPOUND A 55 mg/kg): 1.11
- Glomerular Cellularity ([3]; COMPOUND A 100 mg/kg): 1.44
- Glomerular Necrosis ([3]; COMPOUND A 100 mg/kg): 1.44
- Glomerulosclerosis ([3]; COMPOUND A 100 mg/kg): 1.22
- Interstitial Fibrosis ([3]; COMPOUND A 100 mg/kg): 1.22
- Interstitial Infiltration ([3]; COMPOUND A 100 mg/kg): 1.22
- Tubular Atrophy ([3]; COMPOUND A 100 mg/kg): 1.33
- Vasculitis ([3]; COMPOUND A 100 mg/kg): 1.44
- enlarged glomeruli and leukocytic infiltrates in renal sections ([3]; NZM mice treated with COMPOUND A, FIG. 19): absent
- glomerular cellularity decrease compared to vehicle ([3]; NZM mice, COMPOUND A 55 mg/kg): 59.3%
- glomerular cellularity decrease compared to vehicle ([3]; NZM mice, COMPOUND A 100 mg/kg): 56.2%
- renal pathologies ([3]; NZM mice, comparable to non-diseased NZW/LacJ age-matched control, FIG. 19): decreased renal pathologies
- interstitial fibrosis decrease compared to vehicle [3, 6]: 58.3%
- vasculitis decrease compared to vehicle [3, 6]: 8.3%
- lung infiltrates [4]: prevented lung infiltrates
